In patent publication US20130331314A1, “PHARMACEUTICAL COMPOSITION FOR TREATING HCV INFECTIONS” (Hoffmann-La Roche Inc., priority 2010, published 2013):

Assay: Biopharmaceutical Classification System class
Type: physicochemical
Conditions: solubility and permeability limited oral absorption

CC(C)(C)OC(=O)N[C@H]1CCCCC/C=C\[C@@H]2C[C@@]2(C(=O)NS(=O)(=O)C2CC2)NC(=O)[C@@H]2C[C@@H](OC(=O)N3Cc4cccc(F)c4C3)CN2C1=O [Compound I, 4-fluoro-1,3-dihydro-isoindole-2-carboxylic acid (Z)-(1S,4R,6S,14S, 18R)-14-tert-butoxycarbonylamino-4-cyclopropanesulfonylaminocarbonyl-2,15-dioxo-3,16-diaza-tricyclo[14.3.0.0^4,6]nonadec-7-en-18-yl ester]
Biopharmaceutical Classification System class: Class 4
